Measurements reported in ChEMBL document CHEMBL3044917, “Multicomponent one-pot synthesis of 2-naphthol derivatives and evaluation of their anticancer activity” (Med Chem Res, 2012).

Key:
Type in all cases: functional, cell-based
[1] = test system: HeLa; experiment: Cytotoxicity against Homo sapiens (human) HeLa cells after 48 hr by MTT assay
[2] = Cytotoxicity against Homo sapiens (human) MDA231 cells after 48 hr by MTT assay; details: MDA-MB-231, 48 h
[3] = test system: A549; experiment: Cytotoxicity against Homo sapiens (human) A549 cells after 48 hr by MTT assay; details: A549, 48 h
[4] = test system: HepG2; experiment: Cytotoxicity against Homo sapiens (human) HepG2 cells after 48 hr by MTT assay; details: HepG2, 48 h

SMILES | IC50 [1] | IC50 [2] | IC50 [3] | IC50 [4]
C=CCC(c1ccccc1)c1c(O)ccc2ccccc12 (stereo unspecified) | 76 µM | 33 µM | 59 µM | 53 µM
C=CCC(c1ccc(Cl)cc1)c1c(O)ccc2ccccc12 (stereo unspecified) | 6.4 µM | 7.6 µM | 9.6 µM | 7.4 µM
C=CCC(c1cccc(F)c1)c1c(O)ccc2ccccc12 (stereo unspecified) | 8.8 µM | 9.1 µM | 8.6 µM | 6.5 µM
C=CCC(c1ccc(F)cc1)c1c(O)ccc2ccccc12 (stereo unspecified) | < 1 µM | < 1 µM | 1.6 µM | 1.2 µM
C=CCC(c1ccccc1F)c1c(O)ccc2ccccc12 (stereo unspecified) | 6.8 µM | 6.6 µM | 7.8 µM | 9.7 µM
C=CCC(c1ccc(C)cc1)c1c(O)ccc2ccccc12 (stereo unspecified) | 6.2 µM | 6 µM | 6.8 µM | 5.6 µM
COc1cccc2c1C(=O)c1c(O)c3c(c(O)c1C2=O)C[C@@](O)(C(=O)CO)C[C@@H]3O[C@H]1C[C@H](N)[C@H](O)[C@H](C)O1 [DOXORUBICIN] | < 1 µM | < 1 µM | < 1 µM | 
C=CCC(c1ccc(C(C)C)cc1)c1c(O)ccc2ccccc12 (stereo unspecified) | 12.5 µM | 16.5 µM | 13.5 µM | 15 µM
